Tests used:
[1] = test system: clinically isolated strains; assay: Test Examples 1 to 3 with other β-lactamase-inhibiting penicillins or cephalosporins; format: cell-based; conditions: in place of Methicillin or Cloxacillin
Procedure: (§1) Heart Infusion agar containing a prescribed amount of Methicillin sodium or T-1220 was inoculated with the test bacterium at a rate of about 10^8 cells/ml. After incubation for 18 hours at 37° C., the growth of the test bacterium was inspected.
The β-lactamase activity was assayed by the iodometric assay method at 30° C., following the procedure of Perret [C.J. Perret, "Iodometric Assay of Penicillinase," Nature, 174, 1012-1013 (1954)], except that a 0.1 molar phosphate buffer solution (pH 7.0) was used in place of the 0.2 molar phosphate buffer solution (pH 6.5). One unit of β-lactamase activity corresponds to the quantity of β-lactamase which decomposes 1 μmole/hour of T-1220 in a 0.1 molar phosphate buffer solution (pH 7.0) containing 8 m moles of the substrate.
A pathogenic bacterium was inoculated at a rate of about 10^8 cells/ml into a Heart Infusion broth containing T-1220 (200 μg/ml) alone, T-1220 (200 μg/ml) plus Methicillin sodium (200 μg/ml), T-1220 (200 μg/ml) plus Cloxacillin sodium (200 μg/ml), Methicillin sodium (200 μg/ml) alone, or Cloxacillin sodium (200 μg/ml) alone. The inoculated broth was incubated at 37° C. and the number of live cells in the culture broth was determined at predetermined time intervals.
The test results described in the foregoing Test Examples 1 to 3 are typical of the pharmacological activity of the antibacterial composition of this invention.

[2] = test system: Escherichia coli TK-3 strain; assay: Growth-inhibition test on clinically isolated strain (Heart Infusion agar, about 10^8 cells/ml, 18 hours at 37° C.); format: cell-based; design: key: (+) means that the test bacterium grew; (-) means that the test bacterium did not grow
Procedure: as §1

[3] = test system: Pseudomonas aeruginosa S-12 strain; assay: as above; format: cell-based; design: key: (+) means that the test bacterium grew; (-) means that the test bacterium did not grow
Procedure: as §1

[4] = test system: Escherichia coli TK-3 strain; assay: Minimum inhibitory concentration; format: cell-based; conditions: TK3STRAIN
[5] = test system: Pseudomonas aeruginosa S-12 strain; assay: Minimum inhibitory concentration; format: cell-based; conditions: S12STRAIN
K. pneumoniae Y-53 = assay: Effect of combined use on experimental infection in mice (protection effect); format: in vivo, ICR mice infected with K. pneumoniae; conditions: K. pneumoniae Y-53, 1.0 × 10^7 cells/mouse intraperitoneal; subcutaneous, one and two hours after inoculation
From the text: (§2) Male mice (5 mice per group) of the ICR strain, 4 weeks of age, were peritoneally inoculated with the prescribed number of pathogenic bacteria suspended in 5% mucin. After one hour and two hours following the inoculation, test preparations shown in Table 4 were subcutaneously administered to examine the protection effect.

P. aeruginosa S-111 = assay: as above; format: in vivo, ICR mice infected with P. aeruginosa; conditions: P. aeruginosa S-111, 1.6 × 10^6 cells/mouse intraperitoneal; subcutaneous, one and two hours after inoculation
From the text: as §2

[6] = T-1220 0 + methicillin sodium 50 μg/ml
[7] = T-1220 0 + methicillin sodium 100 μg/ml
[8] = T-1220 0 + methicillin sodium 200 μg/ml

Cc1onc(-c2ccccc2)c1C(=O)N[C@@H]1C(=O)N2[C@@H]1SC(C)(C)[C@@H]2C(=O)O [Oxacillin] was tested, and the “results in the Test Examples when used as the β-lactamase-inhibiting penicillin or cephalosporin” value [1] was “results similar to those obtained with Methicillin and Cloxacillin”.

In the case of COc1cccc(OC)c1C(=O)N[C@@H]1C(=O)N2[C@@H]1SC(C)(C)[C@@H]2C(=O)O [Methicillin sodium], the “growth of the test bacterium” value [2, 6] is reported as “+”, the “growth of the test bacterium” value [2, 7] is reported as “+” and the “growth of the test bacterium” value [2, 8] is reported as “+”. For the same molecule, the “growth of the test bacterium” value ([2]; T-1220 0 + methicillin sodium 400 μg/ml) was “+”, the “growth of the test bacterium” value ([2]; T-1220 0 + methicillin sodium 800 μg/ml) was “+” and the “growth of the test bacterium” value ([2]; T-1220 0 + methicillin sodium 1600 μg/ml) was “+”. The “growth of the test bacterium” value ([2]; T-1220 0 + methicillin sodium 3200 μg/ml) was “+”, the “growth of the test bacterium” value ([3]; T-1220 0 + methicillin sodium 3.13 μg/ml) was “+” and the “growth of the test bacterium” value ([3]; T-1220 0 + methicillin sodium 6.25 μg/ml) was “+”. For the same molecule, the “growth of the test bacterium” value ([3]; T-1220 0 + methicillin sodium 12.5 μg/ml) was “+”, the “growth of the test bacterium” value ([3]; T-1220 0 + methicillin sodium 25 μg/ml) was “+” and the “growth of the test bacterium” value [3, 6] was “+”. The “growth of the test bacterium” value [3, 7] was “+”, the “growth of the test bacterium” value [3, 8] was “+” and the MIC [4] was over 3200 µg/mL. The MIC [5] was over 3200 µg/mL, the “ED50 (protection effect)” value (K. pneumoniae Y-53) was over 50 mg/mouse and the “ED50 (protection effect)” value (P. aeruginosa S-111) was over 50 mg/mouse.

For Cc1onc(-c2c(Cl)cccc2Cl)c1C(=O)N[C@@H]1C(=O)N2[C@@H]1SC(C)(C)[C@@H]2C(=O)O [Dicloxacillin], the “results in the Test Examples when used as the β-lactamase-inhibiting penicillin or cephalosporin” value [1] was “results similar to those obtained with Methicillin and Cloxacillin”.

For CCN1CCN(C(=O)N[C@@H](C(=O)N[C@@H]2C(=O)N3[C@@H]2SC(C)(C)[C@@H]3C(=O)O)c2ccccc2)C(=O)C1=O [T-1220, sodium 6-[D(-)-α-(4-ethyl-2,3-dioxo-1-piperazinylcarbonylamino)phenylacetamido]penicillanate], the “growth of the test bacterium” value ([2]; T-1220 50 + methicillin sodium 0 μg/ml) was “+”, the “growth of the test bacterium” value ([2]; T-1220 100 + methicillin sodium 0 μg/ml) was “+” and the “growth of the test bacterium” value ([2]; T-1220 200 + methicillin sodium 0 μg/ml) was “+”. The “growth of the test bacterium” value ([2]; T-1220 400 + methicillin sodium 0 μg/ml) was “+”, the “growth of the test bacterium” value ([2]; T-1220 800 + methicillin sodium 0 μg/ml) was “+” and the “growth of the test bacterium” value ([2]; T-1220 1600 + methicillin sodium 0 μg/ml) was “+”. The “growth of the test bacterium” value ([2]; T-1220 3200 + methicillin sodium 0 μg/ml) was “+”, the “growth of the test bacterium” value ([3]; T-1220 50 μg/ml, methicillin sodium concentration not given) was “+” and the “growth of the test bacterium” value ([3]; T-1220 100 μg/ml, methicillin sodium concentration not given) was “+”. For the same molecule, the “growth of the test bacterium” value ([3]; T-1220 200 μg/ml, methicillin sodium concentration not given) was “+”, the “growth of the test bacterium” value ([3]; T-1220 400 μg/ml, methicillin sodium concentration not given) was “+” and the “growth of the test bacterium” value ([3]; T-1220 800 μg/ml, methicillin sodium concentration not given) was “+”. For the same molecule, the “growth of the test bacterium” value ([3]; T-1220 1600 μg/ml, methicillin sodium concentration not given) was “+”, the “growth of the test bacterium” value ([3]; T-1220 3200 μg/ml, methicillin sodium concentration not given) was “+” and the MIC [4] was over 3200 µg/mL. For the same molecule, the MIC [5] was over 3200 µg/mL, the “ED50 (protection effect)” value (K. pneumoniae Y-53) was over 50 mg/mouse and the “ED50 (protection effect)” value (P. aeruginosa S-111) was over 50 mg/mouse.

For CO[C@@]1(NC(=O)Cc2cccs2)C(=O)N2C(C(=O)O)=C(COC(N)=O)CS[C@@H]21 [Cefoxitin], the “results in the Test Examples when used as the β-lactamase-inhibiting penicillin or cephalosporin” value [1] was “results similar to those obtained with Methicillin and Cloxacillin”.

Cc1onc(-c2ccccc2Cl)c1C(=O)N[C@@H]1C(=O)N2[C@@H]1SC(C)(C)[C@@H]2C(=O)O [Cloxacillin sodium] showed an MIC [4] of over 3200 µg/mL and an MIC [5] of over 3200 µg/mL.

For Cc1onc(-c2c(F)cccc2Cl)c1C(=O)N[C@@H]1C(=O)N2[C@@H]1SC(C)(C)[C@@H]2C(=O)O [Flucloxacillin], the “results in the Test Examples when used as the β-lactamase-inhibiting penicillin or cephalosporin” value [1] was “results similar to those obtained with Methicillin and Cloxacillin”.
